Test results taken from publication PMC2771219 (Journal of molecular biology, 2009).

Target: UDP-galactopyranose mutase (UGM) (Klebsiella pneumoniae, UniProt Q48485, R384G)
Test: fluorescence polarization
Assay type: binding

Substance UDP-fluorescein has a Kd of 90 nM.
